# Results as given in patent US20110166121A1 (LG LIFE SCIENCES LTD., priority 2008, published 2011).
# Where a name gives a salt, the structure may show the parent alone.
# System: Human platelet aggregation caused by ADP
# Test: Inhibition of ADP-induced platelet aggregation (Mimic-human PRP)
# Format: cell-based
# Conditions: 20 μM ADP, human platelet concentrate diluted with PPP, absorption at 595 nm
# Method: Platelet Preparation for Aggregation Studies
# Human platelet aggregation reaction test is a functional experiment method to verify whether a test compound is an agonist or an antagonist to ADP receptor. […] The platelet product isolated from whole blood was purchased from Chung-Nam blood center (Dae-joen, South Korea). The platelet was isolated from 400 mL of whole blood containing 56 mL of CPDA-1 anticoagulant. To isolate the platelet product, 400 mL of whole blood was centrifuged at 260×g for 5 minutes, and then obtained PRP (platelet rich plasma) was secondary centrifuged at 370×g for 6 minutes. Platelet pellet (10^9/mL) was suspended with 45 mL of plasma and then agitated over 1 hour at 22° C. blood reservoir to stabilize it. The stabilized platelet product was used in the experiment within 24 hours. PCs (Platelet Concentrates) were gently transferred to a new 50 ml-falcon tube. The number of platelet was counted by using animal blood counter (ABC Vet, ABX diagnostics, France). The volume of 30 mL of PCs collected from same donor was centrifuged at 1500 g for 10 min at room temperature to prepare platelet-poor plasma (PPP). The platelet count was adjusted to platelet number of 3˜4×10^8/mL by diluting with PPP.
# Evaluation on Inhibitory Effect of ADP-Induced Aggregation
# Inhibition of ADP-induced aggregation was determined in 96-well flat-bottom plates (Costar, USA) at room temperature. The diluted platelet was aliquoted into each well of 96 well plate in the volume of 188 μl. […] The platelet including test compounds was immediately mixed on a shaker at 1050 rpm for 1 min and incubated at room temperature for 20 min. Then, 10 μL volume of 400 μM ADP was added: the final concentration of 20 μM ADP in the total reaction volume of 0.2 mL/well. After shaking of the plate at room temperature for 3 min, the absorption of the samples was determined at 595 nm using a microtiter plate reader (Softmax, Molecular Devices).
# A dose-dependent curve on serial dilutions of ADP was accomplished by adding vehicle (DMSO) instead of antagonists in order to calculate EC50 of ADP. Inhibition of aggregation was calculated from the increase of absorption at 595 nm at 3 min of the reaction incubation, compared to results of absorption between the 0 and 20 μM ADP control without antagonists. Sigmoidal dose-response curves and Ki were derived by non-linear regression analysis using the Prism software (GraphPad, San Diego Calif.).
row,Compound,Ki
1,"CCCc1cc2c(N3CCn4c(nnc4C(F)(F)F)C3)nc(OC)nc2s1 [Example 9-35, 7-(2-Methoxy-6-propyl-thieno[2,3-d]pyrimidin-4-yl)-3-trifluoromethyl-5,6,7,8-tetrahydro-[1,2,4]triazolo[4,3-a]pyrazine]",220 nM
2,"CCCc1cc2c(N3CCn4c(nnc4C(F)(F)F)C3)nc(N3C=CC4=NCCNC4=C3)nc2s1 [Example 1-133, 6-[6-Propyl-4-(3-trifluoromethyl-5,6-dihydro-8H-[1,2,4]triazolo[4,3-a]pyrazin-7-yl)thieno[2,3-d]pyrimidin-2-yl]-2,3,4,6-tetrahydro-pyrido[3,4-b]pyrazine]",145 nM
3,"CCCc1cc2c(N3CCn4c(nnc4C(F)(F)F)C3)nc(N3CC(N)C(N)C3)nc2s1 (centres unmarked) [Example 7-27, Di-hydrochloric acid salt of 1-[6-Propyl-4-(3-trifluoromethyl-5,6-dihydro-8H-[1,2,4]triazolo[4,3-a]pyrazin-7-yl)-thieno[2,3-d]pyrimidin-2-yl]-pyrrolidine-3,4-diamine]",17 nM
4,"CCCC(=O)NCCNc1nc(N2CCn3c(nnc3C(F)(F)F)C2)c2cc(CCC)sc2n1 [Example 8-8, N-{2-[6-Propyl-4-(3-trifluoromethyl-5,6-dihydro-8H-[1,2,4]triazolo[4,3-a]pyrazin-7-yl)-thieno[2,3-d]pyrimidin-2-ylamino]-ethyl}-butyramide]",85 nM
5,"CCCc1cc2c(N3CCn4c(nnc4C(F)(F)F)C3)nc(OC[C@H]3CCN(C(=O)C(C)C)C3)nc2s1 [Example 8-39, 2-Methyl-1-{(S)-3-[6-propyl-4-(3-trifluoromethyl-5,6-dihydro-8H-[1,2,4]triazolo[4,3-a]pyrazin-7-yl)-thieno[2,3-d]pyrimidin-2-yloxymethyl]-pyrrolidin-1-yl}-propan-1-one]",76 nM
6,"CCCc1cc2c(N3CCn4c(nnc4C(F)(F)F)C3)nc(OCCNC=O)nc2s1 [Example 9-23, N-{2-[6-Propyl-4-(3-trifluoromethyl-5,6-dihydro-8H-[1,2,4]triazolo[4,3-a]pyrazin-7-yl)-thieno[2,3-d]pyrimidin-2-yloxy]-ethyl}-formamide]",3 nM
7,"CCCC(=O)NC1CN(c2nc(N3CCn4c(nnc4C(F)(F)F)C3)c3cc(CCC)sc3n2)CC1O (centres unmarked) [Example 7-19, N-{4-Hydroxy-1-[6-propyl-4-(3-trifluoromethyl-5,6-dihydro-8H-[1,2,4]triazolo[4,3-a]pyrazin-7-yl)-thieno[2,3-d]pyrimidin-2-yl]-pyrrolidin-3-yl}-butyramide]",5 nM
8,"CCCc1cc2c(N3CCn4c(nnc4C(F)(F)F)C3)nc(N3CC(O)C(NC(=O)C(C)(CO)CO)C3)nc2s1 (centres unmarked) [Example 7-24, 3-Hydroxy-2-hydroxymethyl-N-{4-hydroxy-1-[6-propyl-4-(3-trifluoromethyl-5,6-dihydro-8H-[1,2,4]triazolo[4,3-a]pyrazin-7-yl)-thieno[2,3-d]pyrimidin-2-yl]-pyrrolidin-3-yl}-2-methyl-propionamide]",15 nM
9,"CCCc1cc2c(N3CCn4c(nnc4C(F)(F)F)C3)nc(OCC(C)(C)NC(C)=O)nc2s1 [Example 9-79, N-{1,1-Dimethyl-2-[6-propyl-4-(3-trifluoromethyl-5,6-dihydro-8H-[1,2,4]triazolo[4,3-a]pyrazin-7-yl)-thieno[2,3-d]pyrimidin-2-yloxy]-ethyl}-acetamide]",3.4 nM
10,"CCCc1cc2c(N3CCn4c(nnc4C(F)(F)F)C3)nc(OCCNC(=O)OC)nc2s1 [Example 9-19, {2-[6-Propyl-4-(3-trifluoromethyl-5,6-dihydro-8H-[1,2,4]triazolo[4,3-a]pyrazin-7-yl)-thieno[2,3-d]pyrimidin-2-yloxy]-ethyl}-carbamic acid methyl ester]",3 nM
11,"CCCc1cc2c(N3CCn4c(nnc4C(F)(F)F)C3)nc(OCCCCNC(=O)OC)nc2s1 [Example 9-88, {4-[6-Propyl-4-(3-trifluoromethyl-5,6-dihydro-8H-[1,2,4]triazolo[4,3-a]pyrazin-7-yl)-thieno[2,3-d]pyrimidin-2-yloxy]-butyl}-carbamic acid methyl ester]",420 nM
12,"CCCc1cc2c(N3CCn4c(nnc4C(F)(F)F)C3)nc(N3CC(O)C(NC(=O)C(C)(C)C)C3)nc2s1 (centres unmarked) [Example 7-21, N-{4-Hydroxy-1-[6-propyl-4-(3-trifluoromethyl-5,6-dihydro-8H-[1,2,4]triazolo[4,3-a]pyrazin-7-yl)-thieno[2,3-d]pyrimidin-2-yl]-pyrrolidin-3-yl}-2,2-dimethyl-propionamide]",21 nM
13,"CCCc1cc2c(N3CCn4c(nnc4C(F)(F)F)C3)nc(OCCNC(=O)NC)nc2s1 [Example 9-25, 1-Methyl-3-{2-[6-propyl-4-(3-trifluoromethyl-5,6-dihydro-8H-[1,2,4]triazolo[4,3-a]pyrazin-7-yl)-thieno[2,3-d]pyrimidin-2-yloxy]-ethyl}-urea]",5.7 nM
14,"CCCc1cc2c(N3CCn4c(nnc4C(F)(F)F)C3)nc(N3CC[C@H](NC(=O)CN)C3)nc2s1 [Example 1-101, 2-Amino-N-{(S)-1-[6-propyl-4-(3-trifluoromethyl-5,6-dihydro-8H-[1,2,4]triazolo[4,3-a]pyrazin-7-yl)-thieno[2,3-d]pyrimidin-2-yl]-pyrrolidin-3-yl}-acetamide]",3.5 nM
15,"CCCc1cc2c(N3CCn4c(nnc4C(F)(F)F)C3)nc(N3CC[C@H](NC(=O)Oc4ccc(F)cc4)C3)nc2s1 [Example 9-4, {(S)-1-[6-Propyl-4-(3-trifluoromethyl-5,6-dihydro-8H-[1,2,4]triazolo[4,3-a]pyrazin-7-yl)-thieno[2,3-d]pyrimidin-2-yl]-pyrrolidin-3-yl}-carbamic acid 4-fluoro-phenyl ester]",280 nM
16,"CCCc1cc2c(N3CCn4c(nnc4C(F)(F)F)C3)nc(NCCNC(=O)OC)nc2s1 [Example 9-32, {2-[6-Propyl-4-(3-trifluoromethyl-5,6-dihydro-8H-[1,2,4]triazolo[4,3-a]pyrazin-7-yl)-thieno[2,3-d]pyrimidin-2-ylamino]-ethyl}-carbamic acid methyl ester]",29 nM
17,"CCCC(=O)N1CC[C@H](COc2nc(N3CCn4c(nnc4C(F)(F)F)C3)c3cc(CCC)sc3n2)C1 [Example 8-38, 1-{(S)-3-[6-Propyl-4-(3-trifluoromethyl-5,6-dihydro-8H-[1,2,4]triazolo[4,3-a]pyrazin-7-yl)-thieno[2,3-d]pyrimidin-2-yloxymethyl]-pyrrolidin-1-yl}-butan-1-one]",110 nM
18,"CCCc1cc2c(N3CCn4c(nnc4C(F)(F)F)C3)nc(OCC)nc2s1 [Example 9-36, 7-(2-Ethoxy-6-propyl-thieno[2,3-d]pyrimidin-4-yl)-3-trifluoromethyl-5,6,7,8-tetrahydro-[1,2,4]triazolo[4,3-a]pyrazine]",170 nM
19,"CCCc1cc2c(N3CCn4c(nnc4C(F)(F)F)C3)nc(N3CC4OC(=O)N[C@H]4C3)nc2s1 (stereo partly drawn) [Example 7-26, (S)-5-[6-Propyl-4-(3-trifluoromethyl-5,6-dihydro-8H-[1,2,4]triazolo[4,3-a]pyrazin-7-yl)-thieno[2,3-d]pyrimidin-2-yl]-hexahydro-pyrrolo[3,4-d]oxazol-2-one]",2.1 nM
20,"CCCc1cc2c(N3CCn4c(nnc4C(F)(F)F)C3)nc(OCCCNC=O)nc2s1 [Example 9-90, N-{3-[6-Propyl-4-(3-trifluoromethyl-5,6-dihydro-8H-[1,2,4]triazolo[4,3-a]pyrazin-7-yl)-thieno[2,3-d]pyrimidin-2-yloxy]-propyl}-formamide]",110 nM
